This passage reports GI50 results from ChEMBL document CHEMBL1146932, “A series of 23,24-dihydrodiscodermolide analogues with simplified lactone regions” (2006).

Holding throughout (format): functional
What all share (conditions): Homo sapiens

For one experiment, the system named is NCI/ADR-RES. Kind of experiment: Antiproliferative activity against NCI/ADR cell line.
A further experiment relates to MCF7. In words: Antiproliferative activity against MCF7 cell line.
Experiment [1] deals with A549. Kind of experiment: Antiproliferative activity against A549t12 cell line.
The test system of experiment [2] is A549. In words: Antiproliferative activity against A549 cell line.
Experiment [3] has as its system CCRF-CEM. In words: Antiproliferative activity against resistant CCRF-CEM/PTX cell line.
Experiment [4] has as its system CCRF-CEM. In words: Antiproliferative activity against CCRF-CEM cell line.
The subject of experiment [5] is CCRF-CEM. In words: Antiproliferative activity against resistant CCRF-CEM/VP16 cell line.
The subject of experiment [6] is CCRF-CEM. Kind of experiment: Antiproliferative activity against resistant CCRF-CEM/VBL cell line.

For orientation: GI50 means the concentration that inhibits growth by half. Regarding `CC/C=C\[C@H](C)[C@H](OC(N)=O)[C@@H](C)[C@H](O)[C@@H](C)C/C(C)=C\[C@H](C)[C@@H](O)[C@@H](C)/C=C\[C@@H](O)C[C@H](O)[C@H](C)C[C@H](C)C(=O)OC`, the 50% growth inhibitory concentration (GI50) in the experiment on NCI/ADR-RES came to 10 µM; with MCF7, 1 µM; in the experiment with A549 [1], 4 µM; in the experiment on A549 [2], 4 µM.

As to `CC/C=C\[C@H](C)[C@H](OC(N)=O)[C@@H](C)[C@H](O)[C@@H](C)C/C(C)=C\[C@H](C)[C@@H](O)[C@@H](C)/C=C\[C@@H](O)C[C@H](O)[C@H](C)CO`, the GI50 in the experiment on NCI/ADR-RES came out at 10 µM; in the experiment with MCF7, 1 µM; in the experiment on A549 [1], 5 µM; with A549 [2], 3 µM.

Consider `CC/C=C\[C@H](C)[C@H](OC(N)=O)[C@@H](C)[C@H](O)[C@@H](C)C/C(C)=C\[C@H](C)[C@@H](O)[C@@H](C)/C=C\[C@@H](O)C[C@@H]1OC(=O)[C@H](C)[C@@H](O)[C@H]1C`, for which the concentration for 50% growth inhibition (GI50) with NCI/ADR-RES turned out to be 0.19 µM; in the experiment with MCF7, 0.0062 µM; in the experiment with A549 [2], 0.007 µM.

As to `C=C/C=C\[C@H](C)[C@H](OC(N)=O)[C@@H](C)[C@H](O)[C@@H](C)C/C(C)=C\[C@H](C)[C@@H](O)[C@@H](C)/C=C\[C@@H](O)C[C@@H]1OC(=O)[C@H](C)[C@@H](O)[C@H]1C` [DISERMOLIDE], the 50% growth inhibitory concentration (GI50) in the experiment with CCRF-CEM [3] worked out at 0.092 µM; with NCI/ADR-RES it was 0.24 µM; in the experiment with MCF7 it was 0.028 µM; with CCRF-CEM [4], 0.016 µM; in the experiment with CCRF-CEM [5], 0.052 µM; with A549 [1], 0.03 µM. Besides, the GI50 in the experiment on A549 [2] amounted to 0.022 µM; in the experiment on CCRF-CEM [6], 0.158 µM.

`CC/C=C\[C@H](C)[C@H](OC(N)=O)[C@@H](C)[C@H](O)[C@@H](C)C/C(C)=C\[C@H](C)[C@@H](O)[C@@H](C)/C=C\[C@@H](O)C[C@@H]1OC(=O)[C@H](C)C[C@H]1C`: the GI50 in the experiment on CCRF-CEM [3] came to 0.065 µM; in the experiment with NCI/ADR-RES, 0.14 µM; in the experiment on MCF7 it was 0.0058 µM; in the experiment on CCRF-CEM [4], 0.0086 µM; in the experiment with CCRF-CEM [5] it was 0.012 µM; in the experiment on A549 [1], 0.05 µM. In addition, the results for the GI50 with A549 [2] and in the experiment on CCRF-CEM [6] were 0.011 µM and 0.209 µM, respectively.

In the case of `CC/C=C\[C@H](C)[C@H](OC(N)=O)[C@@H](C)[C@H](O)[C@@H](C)C/C(C)=C\[C@H](C)[C@@H](O)[C@@H](C)/C=C\[C@H](O)C[C@@H]1CCC(=O)O1`, the 50% growth inhibitory concentration (GI50) is 10 µM with NCI/ADR-RES, 2 µM with MCF7, 10 µM in the experiment on A549 [1] and 4 µM in the experiment with A549 [2].

As for `CC/C=C\[C@H](C)[C@H](OC(N)=O)[C@@H](C)[C@H](O)[C@@H](C)C/C(C)=C\[C@H](C)[C@@H](O)[C@@H](C)/C=C\[C@@H](O)C[C@@H]1OC(=O)[C@H](C)[C@@H](OC)[C@H]1C`, the GI50 was found to be 0.079 µM in the experiment with CCRF-CEM [3]; 0.25 µM in the experiment on NCI/ADR-RES; 0.0038 µM in the experiment on MCF7; 0.0044 µM in the experiment on CCRF-CEM [4]; 0.0084 µM in the experiment with CCRF-CEM [5]; 0.012 µM in the experiment with A549 [1]. The GI50 in the experiment with A549 [2] is 0.0065 µM; in the experiment on CCRF-CEM [6], 0.416 µM.

Take `CC/C=C\[C@H](C)[C@H](OC(N)=O)[C@@H](C)[C@H](O)[C@@H](C)C/C(C)=C\[C@H](C)[C@@H](O)[C@@H](C)/C=C\[C@@H](O)C[C@@H]1OC(=O)NC[C@H]1C`: the concentration for 50% growth inhibition (GI50) with NCI/ADR-RES was 10 µM; in the experiment on MCF7 it was 0.11 µM; with A549 [1], 1 µM; in the experiment with A549 [2], 0.52 µM.

As for `CC/C=C\[C@H](C)[C@H](OC(N)=O)[C@@H](C)[C@H](O)[C@@H](C)C/C(C)=C\[C@H](C)[C@@H](O)[C@@H](C)/C=C\[C@@H](O)C[C@H]1CCC(=O)O1`, the concentration for 50% growth inhibition (GI50) stood at 0.285 µM with CCRF-CEM [3]; 0.73 µM in the experiment on NCI/ADR-RES; 0.0064 µM in the experiment on MCF7; 0.0065 µM with CCRF-CEM [4]; 0.0071 µM in the experiment with CCRF-CEM [5]; 0.063 µM with A549 [1]. Moreover, the values for the GI50 in the experiment on A549 [2] and in the experiment with CCRF-CEM [6] were 0.046 µM and 3.81 µM, respectively.
